According to publication PMC12700550, “DLL4^+ neutrophils promote Notch1-mediated endothelial PANoptosis to exacerbate acute lung injury in sepsis” (The Journal of Clinical Investigation, 2025):

Legend:
[1] = biological target: Recombinant murine (rm) Notch1 (murine) (UniProt Q01705); experiment: SPR; as a1, same HS-NTA sensor with rmNotch1; rmDLL4 at all concentrations preincubated with 1 ug/mL NDI for 30 minutes at room temperature before injection; 40 uL/min, 20°C; global 1:1 fit
[2] = biological target: Recombinant murine (rm) Notch1 (murine) (UniProt Q01705); experiment: SPR; OpenSPR (Nicoya), HS-NTA sensor activated with NiCl2; rmNotch1 (25 ug/mL) immobilised on channel 2; rmDLL4 as analyte at 5, 12.5, 50 and 100 nM, 40 uL/min; PBS, 0.005% P20, pH 7.4; channel 1 subtracted; global 1:1 fit
ZBP1 [3] = experiment: ZBP1 mRNA in PVECs cocultured with neutrophils, RT-PCR (DAPT, NDI, peptides 1–5); type: cell-based, mouse; settings: DAPT, DLL4^+ neutrophil–PVEC coculture
Experimental: Immortalized mouse (Mus musculus) lung endothelial cells with polyoma middle T (PVECs) were purchased from Applied Biological Materials Inc. (ABM) and grown in 1:1 PriGrow VI Medium and PriGrow IV Medium (ABM).
(§1) Wild-type PVECs (5 × 10^5) were cocultured with sorted DLL4^+ neutrophils (5 × 10^5) or DLL4^– neutrophils (5 × 10^5) and then treated with different dosages of peptides or 10 μM DAPT (Thermo Fisher Scientific), 10 μM NDI (GenScript), or 10 μM NDI scramble (GenScript). Notch1-knockdown PVECs (5 × 10^5) were cocultured with sorted DLL4^+ neutrophils (5 × 10^5). After 16 hours, neutrophils were washed away by PBS, and PVECs were collected for further experiments. Cell viability was evaluated by propidium iodide staining using the FITC Annexin V Apoptosis Detection Kit I (catalog 556547, BD Pharmingen). Cell death was quantified as the percentage of propidium iodide–positive cells by flow cytometry.
mRNA was extracted from lung tissues with TRIzol reagent (Invitrogen, Thermo Fisher Scientific). An equal amount ([…]) of mRNA was reverse-transcribed into cDNA using the reverse transcriptase enzyme (Invitrogen, Thermo Fisher Scientific). qPCR was performed from the diluted cDNA templates with forward and reverse primers (Supplemental Table 4) and SYBR Green PCR Master Mix (Applied Biosystems, Thermo Fisher Scientific) using an Applied Biosystems 7300 real-time PCR machine. Mouse β-actin served as an internal control gene for normalization. Relative expression of mRNA was represented as fold change in comparison with the sham group.

ZBP1 [4] = experiment: ZBP1 protein in PVECs cocultured with neutrophils, Western blot; type: cell-based, mouse; settings: DAPT
Experimental: as §1
(§2) PVECs and lung tissue were collected in previous steps. Whole-cell proteins were extracted, and the protein concentration was measured using an ABC protein assay kit (catalog 5000002, Bio-Rad). Proteins were separated using NuPAGE 4%–12% Bis-Tris gels (Invitrogen), transferred to PVDF membranes, and immunoblotted with the antibodies indicated in the figure legends according to the manufacturer’s recommendations. The ZBP1 antibody (catalog PA5-20455; 1:1,000) used in this study was obtained from Thermo Fisher Scientific, and the c-GSDMD (catalog 10137S; 1:250), GSDMD (catalog 39754S; 1:1000), c-caspase-3 (catalog 9661L; 1:250), caspase-3 (catalog 9662S; 1:1,000), p-MLKL (catalog 37333S; 1:250), MLKL (catalog 37705S; 1:1,000), N1ICD (c-Notch1) (catalog 4147S; 1:250), and Notch1 (catalog 3608S; 1:1,000) antibodies were obtained from Cell Signaling Technology. GAPDH (catalog 60004-1-Ig; 1:10,000) and β-actin (catalog A5441, Sigma-Aldrich; 1:5,000) were obtained from ProteinTech. After the blots were incubated with primary antibodies, the membranes were washed 3 times, and the blots were subsequently incubated with the corresponding fluorescent secondary antibody (LI-COR). Bands were detected using an Odyssey FC Dual-Mode Imaging system 2800 (LI-COR).

c-caspase-3 = experiment: c/t caspase-3 (apoptosis) in PVECs cocultured with neutrophils, Western blot; type: cell-based, mouse; settings: DAPT
Experimental: as §1, §2

p-MLKL = experiment: p-MLKL/MLKL (necroptosis) in PVECs cocultured with neutrophils, Western blot; type: cell-based, mouse; settings: DAPT
Experimental: as §1, §2

c-GSDMD = experiment: c/t GSDMD (pyroptosis) in PVECs cocultured with neutrophils, Western blot; type: cell-based, mouse; settings: DAPT
Experimental: as §1, §2

rmNotch1 = biological target: T1, rmNotch1 (Mus musculus, UniProt Q01705); experiment: BIAcore assay (surface plasmon resonance), rmDLL4 to immobilized rmNotch1; type: binding, murine; settings: OpenSPR, HS-NTA sensor, rmDLL4 5–100 nM, PBS 0.005% P20 pH 7.4, 20°C, 1:1 fit; without NDI; read-out: KD between DLL4 and Notch1
T1 construct: purchased R&D Systems 5267-TK (rmNotch1); 1389-D4-050/CF (rmDLL4)
Experimental: To determine rmDLL4’s direct interaction with rmNotch1, surface plasmon resonance (OpenSPR, Nicoya) was performed. High-sensitivity nitrilotriacetic acid (HS-NTA) sensors were used. Binding reactions were performed in running buffer (PBS, 0.005% P20, pH 7.4). The HS-NTA sensor was first cleaned by injection with 10 mM HCl (150 μL) followed by injection of 150 μL of 350 mM EDTA. […] For the effect of NDI efficacy on rmDLL4 binding to rmNotch1, the same HS-NTA sensor was used. rmDLL4 at all the concentrations used for binding with rmNotch1 was preincubated with 1 μg/mL NDI for 30 minutes at room temperature, and then the complexes were injected to channels 1 and 2. Binding reactions were carried out with the same running buffer at a flow rate of 40 μL/min at 20°C. Channel 1 was used as a control to evaluate nonspecific binding. The real-time interaction data were analyzed by Trace Drawer (Nicoya). The signals from channel 1 were subtracted from channel 2 coated with the ligand for all samples. Data were globally fitted for 1:1 binding (one-to-one model).

[5] = DLL4^+ neutrophil–stimulated PVECs
[6] = DLL4^– neutrophil–treated PVECs

Chain of Recombinant murine (rm) Notch1 (murine) (Q01705 19-2531): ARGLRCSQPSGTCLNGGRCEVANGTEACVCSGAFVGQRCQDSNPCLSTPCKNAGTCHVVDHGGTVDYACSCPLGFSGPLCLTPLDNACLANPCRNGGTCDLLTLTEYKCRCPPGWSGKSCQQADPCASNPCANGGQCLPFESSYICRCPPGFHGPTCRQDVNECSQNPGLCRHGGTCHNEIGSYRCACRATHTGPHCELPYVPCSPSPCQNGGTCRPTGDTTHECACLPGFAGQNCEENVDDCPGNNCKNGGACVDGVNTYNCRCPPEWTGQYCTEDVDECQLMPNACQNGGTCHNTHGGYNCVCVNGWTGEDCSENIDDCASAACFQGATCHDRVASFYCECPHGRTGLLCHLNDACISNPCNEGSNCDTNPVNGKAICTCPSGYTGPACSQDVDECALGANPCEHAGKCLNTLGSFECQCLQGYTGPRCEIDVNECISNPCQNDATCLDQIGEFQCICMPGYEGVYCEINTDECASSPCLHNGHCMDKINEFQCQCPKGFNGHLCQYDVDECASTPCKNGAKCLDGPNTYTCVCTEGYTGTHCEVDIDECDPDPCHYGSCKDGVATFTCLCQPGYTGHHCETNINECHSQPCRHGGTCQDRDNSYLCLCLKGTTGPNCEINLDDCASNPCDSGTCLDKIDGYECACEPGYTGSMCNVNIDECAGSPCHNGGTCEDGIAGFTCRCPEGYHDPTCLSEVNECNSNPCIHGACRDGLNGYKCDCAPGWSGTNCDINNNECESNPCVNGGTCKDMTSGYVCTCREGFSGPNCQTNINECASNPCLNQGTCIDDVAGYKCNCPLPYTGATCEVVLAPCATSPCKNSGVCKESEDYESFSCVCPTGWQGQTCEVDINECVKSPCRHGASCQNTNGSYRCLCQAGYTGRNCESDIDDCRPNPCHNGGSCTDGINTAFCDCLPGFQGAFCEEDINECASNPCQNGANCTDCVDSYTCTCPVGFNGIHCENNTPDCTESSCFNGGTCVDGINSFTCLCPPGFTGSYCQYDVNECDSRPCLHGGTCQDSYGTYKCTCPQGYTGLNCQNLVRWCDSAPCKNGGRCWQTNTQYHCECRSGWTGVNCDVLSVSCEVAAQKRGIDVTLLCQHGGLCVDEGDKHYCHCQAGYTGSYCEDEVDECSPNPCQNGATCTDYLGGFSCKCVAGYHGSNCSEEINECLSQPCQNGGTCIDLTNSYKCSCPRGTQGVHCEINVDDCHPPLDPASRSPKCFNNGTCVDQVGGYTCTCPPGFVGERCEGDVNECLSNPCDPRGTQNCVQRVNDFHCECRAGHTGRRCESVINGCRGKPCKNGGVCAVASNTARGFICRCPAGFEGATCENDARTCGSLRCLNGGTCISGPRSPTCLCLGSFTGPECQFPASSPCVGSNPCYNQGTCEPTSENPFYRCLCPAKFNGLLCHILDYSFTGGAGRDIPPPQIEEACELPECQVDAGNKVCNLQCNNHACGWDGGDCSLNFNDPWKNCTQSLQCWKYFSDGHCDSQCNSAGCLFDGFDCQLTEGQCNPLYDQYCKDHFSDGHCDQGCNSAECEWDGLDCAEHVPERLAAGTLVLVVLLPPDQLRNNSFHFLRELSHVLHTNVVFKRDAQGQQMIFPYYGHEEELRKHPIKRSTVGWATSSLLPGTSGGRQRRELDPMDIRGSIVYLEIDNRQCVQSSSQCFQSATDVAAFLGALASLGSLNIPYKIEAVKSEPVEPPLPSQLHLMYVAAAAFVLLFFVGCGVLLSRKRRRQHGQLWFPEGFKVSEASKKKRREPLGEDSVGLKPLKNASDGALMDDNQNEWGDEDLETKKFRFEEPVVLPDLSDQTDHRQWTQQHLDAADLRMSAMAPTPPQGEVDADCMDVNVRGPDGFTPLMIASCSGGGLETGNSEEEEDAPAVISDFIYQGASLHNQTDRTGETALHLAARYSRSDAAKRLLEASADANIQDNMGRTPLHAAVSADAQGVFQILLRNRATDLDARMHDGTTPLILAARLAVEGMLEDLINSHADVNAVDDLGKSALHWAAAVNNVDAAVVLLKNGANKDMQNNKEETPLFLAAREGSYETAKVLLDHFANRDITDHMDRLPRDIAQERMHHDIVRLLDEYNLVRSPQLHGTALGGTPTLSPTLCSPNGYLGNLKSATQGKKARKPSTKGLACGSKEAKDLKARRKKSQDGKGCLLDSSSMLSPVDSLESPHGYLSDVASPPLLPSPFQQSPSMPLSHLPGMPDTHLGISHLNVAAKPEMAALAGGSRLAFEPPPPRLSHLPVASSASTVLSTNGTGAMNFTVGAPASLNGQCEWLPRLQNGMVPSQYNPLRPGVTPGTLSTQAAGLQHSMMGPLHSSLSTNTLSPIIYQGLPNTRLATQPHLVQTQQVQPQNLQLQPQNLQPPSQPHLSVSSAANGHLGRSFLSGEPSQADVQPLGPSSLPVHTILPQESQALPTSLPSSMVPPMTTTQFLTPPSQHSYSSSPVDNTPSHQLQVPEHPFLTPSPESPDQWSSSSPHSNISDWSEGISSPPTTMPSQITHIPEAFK
T1 sequence (Q01705 with tags, fused parts or gaps limits assumed, one chain of several): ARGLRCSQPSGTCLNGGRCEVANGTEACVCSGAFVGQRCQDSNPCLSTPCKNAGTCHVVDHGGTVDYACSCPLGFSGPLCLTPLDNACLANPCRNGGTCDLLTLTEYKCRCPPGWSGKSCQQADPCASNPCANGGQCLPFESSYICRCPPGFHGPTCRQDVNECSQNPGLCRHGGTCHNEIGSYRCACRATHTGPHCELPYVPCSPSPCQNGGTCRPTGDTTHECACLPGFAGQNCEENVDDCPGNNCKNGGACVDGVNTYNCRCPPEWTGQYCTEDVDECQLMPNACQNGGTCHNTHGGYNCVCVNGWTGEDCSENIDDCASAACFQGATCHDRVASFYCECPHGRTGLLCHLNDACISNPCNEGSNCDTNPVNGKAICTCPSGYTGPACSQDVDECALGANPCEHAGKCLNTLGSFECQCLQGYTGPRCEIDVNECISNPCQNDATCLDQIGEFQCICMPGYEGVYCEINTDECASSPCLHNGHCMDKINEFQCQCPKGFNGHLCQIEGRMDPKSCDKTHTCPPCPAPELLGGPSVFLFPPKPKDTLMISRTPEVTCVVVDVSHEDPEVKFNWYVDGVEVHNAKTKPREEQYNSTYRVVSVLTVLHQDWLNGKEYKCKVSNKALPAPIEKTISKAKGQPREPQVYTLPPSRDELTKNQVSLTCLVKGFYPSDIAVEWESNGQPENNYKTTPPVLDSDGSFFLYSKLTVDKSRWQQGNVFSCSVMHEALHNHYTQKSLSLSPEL

Molecule: Recombinant murine (rm) DLL4 (from UniProt Q9JI71 27-532) (ligand)
- KD with NDI present [1]: 237 nM
- Kd [2]: 42.6 nM

Molecule: C[C@H](NC(=O)Cc1cc(F)cc(F)c1)C(=O)N[C@H](C(=O)OC(C)(C)C)c1ccccc1 [DAPT, N-[N-(3,5-difluorophenacetyl)-L-alanyl]-S-phenylglycine t-butyl ester, reference compound]
- effect on ZBP1 mRNA (ZBP1 [3]): reduced it to the baseline levels
- effect on ZBP1 (ZBP1 [4]; [5]): significantly reduced the elevated expression
- effect on ZBP1 (ZBP1 [4]; [6]): did not significantly reduce
- effect on c-caspase-3 (c-caspase-3; [5]): significantly reduced the elevated expression
- effect on c-caspase-3 (c-caspase-3; [6]): did not significantly reduce
- effect on p-MLKL (p-MLKL; [5]): significantly reduced the elevated expression
- effect on p-MLKL (p-MLKL; [6]): did not significantly reduce
- effect on c-GSDMD (c-GSDMD; [5]): significantly reduced the elevated expression
- effect on c-GSDMD (c-GSDMD; [6]): did not significantly reduce

B1: DLL4: Recombinant murine DLL4, R&D Systems (protein)
chain: GSGIFQLRLQEFVNQRGMLANGQSCEPGCRTFFRICLKHFQATFSEGPCTFGNVSTPVLGTNSFVVRDKNSGSGRNPLQLPFNFTWPGTFSLNIQAWHTPGDDLRPETSPGNSLISQIIIQGSLAVGKIWRTDEQNDTLTRLSYSYRVICSDNYYGESCSRLCKKRDDHFGHYECQPDGSLSCLPGWTGKYCDQPICLSGCHEQNGYCSKPDECICRPGWQGRLCNECIPHNGCRHGTCSIPWQCACDEGWGGLFCDQDLNYCTHHSPCKNGSTCSNSGPKGYTCTCLPGYTGEHCELGLSKCASNPCRNGGSCKDQENSYHCLCPPGYYGQHCEHSTLTCADSPCFNGGSCRERNQGSSYACECPPNFTGSNCEKKVDRCTSNPCANGGQCQNRGPSRTCRCRPGFTGTHCELHISDCARSPCAHGGTCHDLENGPVCTCPAGFSGRRCEVRITHDACASGPCFNGATCYTGLSPNNFVCNCPYGFVGSRCEFPVGLPPSFPWVA
- Kd (rmNotch1): 42.6 nM
